Assay results: ChEMBL document CHEMBL1201862, “PubChem BioAssay data set” (2004)
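Cultured in 96-well plates, cells were exposed to test compound for 48 hours across five concentrations. The concentration for 50% growth inhibition is given as GI50.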 The source made the active and inactive calls. Cut-off read from the data, not from the text of the source: active = GI50 up to about 1.1 µM and inactive = higher.

How the values were obtained:
Test in all cases: DTP human tumour cell line panel, 48 h
NCI-H23 = system: NCI-H23
KM-20L2 = system: KM-20L2
SF-295 = system: SF-295
OVCAR-4 = system: OVCAR-4
MDA-MB-435 = system: MDA-MB-435
A498 = system: A498
UO-31 = system: UO-31
ACHN = system: ACHN
A549 = system: A549
SNB-75 = system: SNB-75
MDA-MB-231 = system: MDA-MB-231
SN12C = system: SN12C
RXF 393 = system: RXF 393
SK-OV-3 = system: SK-OV-3
TK-10 = system: TK-10
SK-MEL-5 = system: SK-MEL-5
OVCAR-3 = system: OVCAR-3
HOP-62 = system: HOP-62
U-251 = system: U-251
NCI/ADR-RES = system: NCI/ADR-RES

Measured: GI50

NC(=O)NO [HYDROXYUREA]
inactive: NCI-H23 710 µM | KM-20L2 436 µM | SF-295 313 µM | OVCAR-4 1850 µM | MDA-MB-435 2000 µM | A498 693 µM | UO-31 508 µM | ACHN 108 µM | A549 514 µM | SNB-75 817 µM | MDA-MB-231 > 1410 µM | SN12C 738 µM | RXF 393 857 µM | SK-OV-3 1680 µM | TK-10 1980 µM | SK-MEL-5 507 µM | OVCAR-3 1240 µM | HOP-62 904 µM | U-251 581 µM | NCI/ADR-RES 390 µM

Cc1cccc(C(C)(C)C)c1NC(=O)C(C#N)C1=C(Cl)C(=O)c2ccccc2C1=O (stereo not given)
inactive: NCI-H23 15.8 µM | KM-20L2 20.5 µM | SF-295 15.9 µM | OVCAR-4 15.4 µM | MDA-MB-435 16.7 µM | A498 24.9 µM | UO-31 14.7 µM | ACHN 14.5 µM | A549 21.7 µM | SNB-75 13.7 µM | MDA-MB-231 14 µM | SN12C 17.3 µM | RXF 393 16.9 µM | SK-OV-3 15.8 µM | TK-10 19.1 µM | SK-MEL-5 17 µM | OVCAR-3 15.7 µM | HOP-62 17.7 µM | U-251 16.9 µM | NCI/ADR-RES 16.6 µM
